# Patent EP4211126B1, “PHOTOCHEMICAL SYNTHESIS OF LOW PARTICLE SIZE MONODISPERSE GOLD NANOPARTICLES, LOADING WITH CANCER DRUG, AND DETERMINATION OF CYTOTOXIC ACTIVITY OF THE SAME” (Yildiz Teknik Universitesi, priority 2020, dated 2022)
# Tested on: acute promyelocytic leukemia (HL-60) cells
# Experiment: MTT colorimetric cytotoxicity test
# Format: cell-based
# Conditions: 72 hours of incubation, compared with DOXO in free form
# Method: MTT (3- (4,5-dimethylthiazol-2-yl) -2,5-diphenyl-2H-tetrazolium bromide) colorimetric test allows the quantitation of living cells whose mitochondrial activity is maintained in the culture medium. […] P<0.05 was considered significant.
# According to MTT experiments, after 72 hours of incubation, the effect of DOXO in free form, i.e., not loaded on AuNps, as well as the DOXO-loaded AuNps was investigated for acute promyelocytic leukemia (HL-60) and chronic myeloid leukemia (K562) cells, and the results are given in Figure 5 and Figure 6, respectively.
smiles,measurement,value
"COc1cccc2c1C(=O)c1c(O)c3c(c(O)c1C2=O)C[C@@](O)(C(=O)CO)C[C@@H]3O[C@H]1C[C@H](N)[C@H](O)[C@H](C)O1 [DOXO, Doxorubicin]",cytotoxic effect (cell viability),should be used in higher amounts in order to have a similar cytotoxic effect
